#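 Results reflect a 48-hour exposure of cells in 96-well plates to compound at five concentrations. GI50 marks 50% less growth. TGI denotes the concentration required for complete inhibition of growth.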
# What was measured:
# Assay in all cases: NCI anticancer screen, dose series, 48 h
# A498 renal = system: A498 renal
# CCRF-CEM leukemia = system: CCRF-CEM leukemia
# DU-145 prostate = system: DU-145 prostate
# HOP-62 NSCLC = system: HOP-62 NSCLC
# IGROV1 ovarian = system: IGROV1 ovarian
# MCF7 breast = system: MCF7 breast
# MDA-MB-231 breast = system: MDA-MB-231 breast
# NCI-H460 lung = system: NCI-H460 lung
# SK-MEL-28 melanoma = system: SK-MEL-28 melanoma
# SN12C renal = system: SN12C renal
SMILES,TGI (A498 renal) [µM],TGI (CCRF-CEM leukemia) [µM],TGI (DU-145 prostate) [µM],TGI (HOP-62 NSCLC) [µM],TGI (IGROV1 ovarian) [µM],TGI (MCF7 breast) [µM],TGI (MDA-MB-231 breast) [µM],TGI (NCI-H460 lung) [µM],TGI (SK-MEL-28 melanoma) [µM],TGI (SN12C renal) [µM],GI50 (A498 renal) [µM],GI50 (DU-145 prostate) [µM],GI50 (MDA-MB-231 breast) [µM],GI50 (SN12C renal) [µM]
Cn1c(CO)ccc1-c1ccc(-c2ccc(CO)[se]2)[se]1,0.0684,> 21,> 100,40.8,12.4,> 40,> 67.2,> 100,> 100,> 100,,,,
O=c1[nH]nc(Nc2ccc(Cl)cc2)c2nnn(C3CCCCC3)c12,> 100,> 100,> 100,> 100,> 100,> 100,45.2,> 100,> 100,> 100,,,,
Cc1ccc(C(=O)Nc2ccc(CP(=O)(O)O)cc2CP(=O)(O)O)cc1N,> 100,> 100,> 100,> 100,> 100,> 100,> 100,,> 100,> 100,,,,
O=S(Nc1ccccc1)c1ccc(Cl)cc1 (stereo unspecified),,> 100,> 100,> 100,> 100,> 100,> 100,> 100,> 100,> 100,,,,
Cc1ccc(S(=O)(=O)N/N=c2/sc3ccccc3n2C)cc1,> 100,> 100,> 100,> 100,> 100,,> 100,> 100,> 100,> 100,,,,
CC(=O)OC12c3ccccc3C(c3ccccc31)C1C(=O)N(N=C(C)C)C(=O)C12 (stereo unspecified),,> 100,> 100,> 100,> 100,> 100,> 100,,> 100,> 100,,,,
C[n+]1c2ccccc2n2c3ccccc3c(NCCCn3ccnc3)c(C#N)c21,46.5,,15.5,> 27,,> 34,9.18,3.63,13.3,4.09,,,,
O=C(N/N=C/c1ccccc1)c1c(F)c(F)c(F)c(F)c1F,> 100,> 100,> 100,> 100,> 100,,> 100,> 100,> 100,> 100,,,,
Cc1cc2nc(N3C(=O)/C(=C/Cc4ccco4)N=C3c3ccccc3)sc2cc1C,,28.1,> 100,> 100,> 100,40.4,> 100,> 100,> 100,87.9,,,,
COc1cc2c(cc1OC)C1=C(C=O)c3ccc(OC)c(OC)c3C(O)N1CC2 (stereo unspecified),72.5,> 100,87.5,> 100,,> 100,46.6,> 100,> 100,> 100,,,,
COc1ccc(/C(C=O)=C(\Cl)c2ccc(OC)c(OC)c2)cc1,> 100,> 100,,> 100,> 100,,,> 100,,> 100,,,,
CC(C)=CC1C(C(=O)OCc2cc3c(cc2Cl)OCO3)C1(C)C (stereo unspecified),> 100,> 100,> 100,> 100,87.5,,86.6,> 100,> 100,> 100,,,,
Cc1cccc2c1nc1n2C(=O)c2ccccc2-1,,> 100,> 100,,> 100,> 100,,> 100,> 100,> 100,,,,
CCOC(=O)CNC(=O)c1[nH]cnc1/N=N/N(C)C,> 100,> 100,,> 100,> 100,,,> 100,> 100,> 100,,,,
CC(C)(C)C(=O)c1c(O)c2ccccc2c2ccccc2c1=O,> 100,> 100,> 100,> 100,,> 100,> 100,> 100,> 100,> 100,,,,
O=C(/C=C\c1ccccc1)Oc1ccc(/C=C2\CCC/C(=C\c3ccc(OC(=O)/C=C\c4ccccc4)cc3)C2=O)cc1,,> 100,> 100,> 100,,> 100,> 100,> 100,> 100,> 100,,,,
Cc1ccc(S(=O)(=O)NC(=O)Nc2ccc(C(=O)O)cc2)cc1,,> 100,> 100,> 100,> 100,> 100,> 100,> 100,> 100,> 100,,,,
CN(C)c1cccc2c(S(=O)(=O)NCCN)cccc12,69.8,> 100,> 100,> 100,91.9,,> 100,> 100,> 100,> 100,,,,
CCCCCCCCCCCCOCC(COP(=O)(O)OCCN=[N+]=[N-])OC(=O)CCCCCCCCCCC (stereo unspecified),> 100,,> 100,> 100,,> 100,> 100,> 100,> 100,> 100,,,,
NC(=O)CSc1nc2ccccc2c(=O)n1N,> 100,,> 100,,> 100,> 100,> 100,> 100,> 100,> 100,,,,
COC(=O)[C@H](C)NC(=O)[C@H](NS(=O)(=O)c1nc2ccccc2s1)c1ccccc1,,> 100,41,74.4,> 100,> 100,64.6,> 100,31.9,,,,,
CCOC(=O)C(Cc1ccc(N=NN(C)C)cc1)NC(=O)CC1c2ccccc2-c2ccccc21 (stereo unspecified),> 100,> 100,,> 100,> 100,,,> 100,> 100,> 100,,,,
CCOC(=O)C1C(c2ccc(Br)cc2)N(Cc2ccccc2)C(c2ccc(Br)cc2)C(C(=O)OC)S1(=O)=O (stereo unspecified),,> 100,,> 100,> 100,,,> 100,> 100,> 100,,,,
CC(=O)CCC1(C(=O)OCC(C)C)CCCC1=O (stereo unspecified),,> 100,> 100,> 100,> 100,,> 100,> 100,> 100,> 100,,,,

SMILES,TGI (A498 renal) [µM],TGI (CCRF-CEM leukemia) [µM],TGI (DU-145 prostate) [µM],TGI (HOP-62 NSCLC) [µM],TGI (IGROV1 ovarian) [µM],TGI (MCF7 breast) [µM],TGI (MDA-MB-231 breast) [µM],TGI (NCI-H460 lung) [µM],TGI (SK-MEL-28 melanoma) [µM],TGI (SN12C renal) [µM],GI50 (A498 renal) [µM],GI50 (DU-145 prostate) [µM],GI50 (MDA-MB-231 breast) [µM],GI50 (SN12C renal) [µM]
COC(=O)Nc1cc(OCCCOC(C)=O)c2[nH]c(C(=O)OC)cc2c1C[C@H](O)CO,> 100,> 100,> 100,> 100,> 100,> 100,> 100,,> 100,> 100,,,,
COCc1cc2c(s1)C(=O)C1=C(C2=O)C2(C=C(Br)C(=O)C(Br)=C2)CCN1,29.6,16.7,29.8,,19.3,28.1,15.2,14.5,20.3,20.4,,,,
CC[C@]1(c2ccc3c(c2)OCO3)C=[N+]([O-])O[C@H](OC2CCCC2(c2ccccc2)c2ccccc2)[C@@H]1OC(C)=O (stereo partly specified),2.94,> 64.6,7.44,5.38,> 21.5,> 24.1,> 21.7,4.91,,> 22.3,,,,
C=CCOC(C)(C)C1=CCC(C)CC1 (stereo unspecified),> 100,,> 100,> 100,> 100,> 100,,> 100,> 100,> 100,,,,
O=[N+]([O-])/C=C/c1cc(Cl)c(/C=C/[N+](=O)[O-])cc1Cl,14.2,> 100,7.96,31.8,8.62,> 33.2,,52.9,,,,,,
CC(C)(C)OC(=O)N[C@H]1CC(=O)c2ccccc2N(CC(=O)O)C1=O,,> 100,,> 100,> 100,,,> 100,> 100,> 100,,,,
COc1ccc(C(=CCC(C)C2CCC3[C@@H]4C(OC(C)=O)CC5CC(OC(C)=O)CC[C@]5(C)C4CC(OC(C)=O)[C@]23C)c2ccc(OC)cc2)cc1 (stereo partly specified),,> 100,,> 100,> 100,> 100,> 100,> 100,> 100,> 100,,,,
Cc1ccc(S(=O)(=O)OCCN(CCOS(=O)(=O)c2ccc(C)cc2)c2ccc(C=O)cc2)cc1,61,> 100,69.9,,> 100,92.9,> 100,48.6,81.3,,,,,
CN1CCCc2nc3ccccc3n2C1,> 100,> 100,,> 100,> 100,,,> 100,> 100,> 100,,,,
COc1cc(C2c3cc4c(cc3[C@@H](Nc3ccc(F)cc3)C3COC[C@H]23)OCO4)cc(OC)c1O (stereo partly specified),,8.45,,> 25,> 25,> 25,15.1,3.83,> 25,23.1,,,,
NCCCNc1nc2ccccc2c2c(=O)c3cc(Cl)ccc3sc12,12.1,,3.27,,,,2.69,,,3.07,3.22,1.84,1.34,1.63
Cc1cc(-c2ccc(N=Nc3ccc4c(S(=O)(=O)O)cc(S(=O)(=O)O)c(N)c4c3O)c(C)c2)ccc1N=Nc1ccc2c(S(=O)(=O)O)cc(S(=O)(=O)O)c(N)c2c1O,> 100,> 100,,> 100,> 100,> 100,,> 100,> 100,> 100,,,,
O=c1[nH]ncc2[nH]c3c(c12)CCc1ccccc1-3,61.8,> 100,> 100,> 100,44.3,,> 100,77,> 100,> 100,,,,
CC1CC(c2ccccc2)=Nc2ccccc2S1 (stereo unspecified),> 100,> 100,,> 100,> 100,,,> 100,> 100,> 100,,,,
COCOC1CCCC[C@@]1(OCCOCCO[C@@]1(c2ccccc2)CCCC[C@H]1OCOC)c1ccccc1 (stereo partly specified),,> 100,,> 100,> 100,,,> 100,> 100,> 100,,,,
CC(=O)C1(C(=O)C(=[N+]=[N-])S(=O)(=O)c2ccccc2)CC1,,> 100,> 100,> 100,> 100,> 100,> 100,> 100,> 100,> 100,,,,
CC(C)C(NCc1c2ccccc2[n+](C)c2ccccc12)C(=O)O (stereo unspecified),24.6,,,19.7,25.5,,,29.1,26.8,18,,,,
Cc1nnc(SCc2nc(C#N)c(C#N)nc2CSc2nnc(C)s2)s1,> 66.5,,29.2,37.8,33.5,34.3,31.4,> 59.2,> 90.8,38.2,,,,
CC(C)(NO)/C(=N\O)c1ccccc1,,> 10,> 10,> 10,,> 10,> 10,> 10,,> 10,,,,
CN1C(c2ccccc2)CC(O)CC1c1ccccc1 (stereo unspecified),> 100,> 100,,> 100,> 100,,,> 100,> 100,> 100,,,,
COc1ccc2oc(=O)c(-c3cc4c(c(C)n3)c(=O)oc3ccc(OC)cc34)cc2c1,,> 100,> 100,> 100,> 100,> 100,> 100,> 100,> 100,> 100,,,,
CC(=O)c1c(-c2ccc(Cl)cc2)c(C#N)c(=S)n(C2OC(CO)C(O)C(O)C2O)c1C (stereo unspecified),> 100,63.7,> 100,> 100,> 100,,> 100,> 100,87.6,> 100,,,,
COc1c(OC2OC(CO)C(O)C(O)C2O)cc2c(c1OC)-c1ccc(OC)c(=O)cc1C(NC(C)=O)CC2 (stereo unspecified),> 100,> 100,,> 100,> 100,,,> 100,> 100,> 100,,,,
C/C(CCN(C)C)=N/O,35.1,7.14,,57,39.2,,,58.5,14.8,27.3,,,,
